From US20250388605A1, “HETEROBIFUNCTIONAL COMPOUNDS AND METHODS OF TREATING DISEASE” (Halda Therapeutics OpCo, Inc., priority 2022, published 2025) come the findings set out here.

The subject of test [1] is T-Rex 293 cell line SC3 cells having increased expression of androgen receptor protein due to exposure to doxycycline. Kind of test: Cellular growth inhibition, T-Rex 293 SC3 cells with doxycycline (increased androgen receptor expression), CellTiter-Glo. It is filed as cell-based. The settings on record: T-Rex 293 SC3 cells with 10 ng/mL doxycycline (increased androgen receptor expression), 72 hours, CellTiter-Glo 2.0. The gist of the method:
(§1)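 Doxycycline (10 ng/mL) was either included or omitted to toggle wild-type androgen receptor expression in SC3 cells, a T-Rex 293 clone, grown in stripped-serum, phenol red-free medium. After 72 hours with compound, viable cells were quantified by CellTiter-Glo 2.0.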
Background: In ATP-based viability assays light output follows the ATP content of the culture.

The target in another test is T1, BRD4-BD1 (Homo sapiens, UniProt O60885).
T1 construct: made in house; host or cells: T7 phage grown in an E. coli host derived from the BL21 strain
In words: Binding affinity to BRD4-BD1 (bromoKdELECT assay). The settings on record: 11-point 3-fold dilution series. The protocol: (§2) Compounds were tested using a bromoKdELECT assay. T7 phage strains displaying bromodomains were grown in parallel in 24-well blocks in an E. coli host derived from the BL21 strain. E. coli were grown to log-phase and infected with T7 phage from a frozen stock (multiplicity of infection=0.4) and incubated with shaking at 32° C. until lysis (90-150 minutes). The lysates were centrifuged (5,000×g) and filtered ([…]) to remove cell debris. Streptavidin-coated magnetic beads were treated with biotinylated small molecule or acetylated peptide ligands for 30 minutes at room temperature to generate affinity resins for bromodomain assays. The liganded beads were blocked with excess biotin and washed with blocking buffer (SeaBlock (Pierce), 1% BSA, 0.05% Tween 20, 1 mM DTT) to remove unbound ligand and to reduce nonspecific phage binding. Binding reactions were assembled by combining bromodomains, liganded affinity beads, and test compounds in 1× binding buffer (17% SeaBlock, 0.33×PBS, 0.04% Tween 20, 0.02% BSA, 0.004% Sodium azide, 7.4 mM DTT). Test compounds were prepared as 1000× stocks in 100% DMSO. Kds were determined using an 11-point 3-fold compound dilution series with one DMSO control point. All compounds for Kd measurements are distributed by acoustic transfer (non-contact dispensing) in 100% DMSO. The compounds were then diluted directly into the assays such that the final concentration of DMSO was 0.09%. All reactions performed in polypropylene 384-well plates. Each was a final volume of 0.02 ml. The assay plates were incubated at room temperature with shaking for 1 hour and the affinity beads were washed with wash buffer (1×PBS, 0.05% Tween 20). The beads were then resuspended in elution buffer (1×PBS, 0.05% Tween 20, 2 M non-biotinylated affinity ligand) and incubated at room temperature with shaking for 30 minutes. The bromodomain concentration in the eluates was measured by qPCR.

Test [2] has as its system T-Rex 293 cell line SC3 cells lacking increased expression of androgen receptor protein. In words: Cellular growth inhibition, T-Rex 293 SC3 cells without doxycycline (no increased androgen receptor expression), CellTiter-Glo. In kind it is cell-based. The settings on record: T-Rex 293 SC3 cells not exposed to doxycycline (no increased androgen receptor expression), 72 hours. The gist of the method:
as §1

The target in another test is T2, BRD4-BD2 (Homo sapiens, UniProt O60885).
T2 construct: made in house; host or cells: T7 phage grown in an E. coli host derived from the BL21 strain
In words: Binding affinity to BRD4-BD2 (bromoKdELECT assay). The settings on record: 11-point 3-fold dilution series. On the procedure: as §2, with “2 μM” for “2 M”

The next test concerns VCaP cells. Kind of test: Cellular growth inhibition assay for VCaP cells, CellTiter-Glo. It is filed as cell-based, human. The settings on record: 72 hours. The method, boiled down:
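GI50 values come from four-parameter curve fits of luminescence data normalized to a zero baseline. Compound, in medium with 0.5% DMSO, was added one day after plating and left for 72 h before CellTiter-Glo 2.0 addition.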

The GI50 is the concentration at which growth is held to half of that of the control. In general, Kd refers to a measure of binding affinity in units of concentration. A high value points to a looser complex. `CCS(=O)(=O)Nc1ccc(Oc2cccc(OCCCN3CCN(CCCN(C)c4ncc(C(=O)N[C@H]5C(C)(C)[C@H](Oc6ccc(C#N)c(Cl)c6)C5(C)C)cn4)CC3)c2)c(-c2cn(C)c(=O)c3[nH]ccc23)c1` [Compound I-5]: the GI50 in test [1] was < 0.5 µM; in test [2] it was 0.5 to 1.5 µM. In addition, the Kd was 0.05 to 0.5 µM on BRD4-BD1 and < 0.05 µM on BRD4-BD2.

For the molecule `CCS(=O)(=O)Nc1ccc(Oc2cccc(OCCOCCOCCOCCOCCOCCOCCOC3CCN(c4ncc(C(=O)N[C@H]5C(C)(C)[C@H](Oc6ccc(C#N)c(Cl)c6)C5(C)C)cn4)CC3)c2)c(-c2cn(C)c(=O)c3[nH]ccc23)c1` [Compound I-9], the GI50 in test [1] is < 0.5 µM; with VCaP cells (Homo sapiens), < 0.5 µM; in test [2], 0.5 to 1.5 µM. Moreover, the Kd on BRD4-BD1 was 0.05 to 0.5 µM; at BRD4-BD2, < 0.05 µM.

As to `CCS(=O)(=O)Nc1ccc(Oc2cccc(OCCCN3CCN(CCCOC4CCN(c5ncc(C(=O)N[C@H]6C(C)(C)[C@H](Oc7ccc(C#N)c(Cl)c7)C6(C)C)cn5)CC4)CC3)c2)c(-c2cn(C)c(=O)c3[nH]ccc23)c1` [Compound I-10], the GI50 (in test [1]; with VCaP cells (Homo sapiens); in test [2]) was < 0.5 µM in each case. Also, the Kd on BRD4-BD1 was 0.05 to 0.5 µM; on BRD4-BD2, < 0.05 µM.

Regarding `Cn1cc(-c2cc(NS(=O)(=O)C3CC3)ccc2Oc2cccc(OCCOC3CCN(c4ncc(C(=O)N[C@H]5C(C)(C)[C@H](Oc6ccc(C#N)c(Cl)c6)C5(C)C)cn4)CC3)c2)c2cc[nH]c2c1=O` [Compound I-48, N-((1r, 3r)-3-(3-chloro-4-cyanophenoxy)-2,2,4,4-tetramethylcyclobutyl)-2-(4-(2-(3-(4-(cyclopropanesulfonamido)-2-(6-methyl-7-oxo-6,7-dihydro-1H-pyrrolo[2,3-c]pyridin-4-yl)phenoxy)phenoxy)ethoxy)piperidin-1-yl)pyrimidine-5-carboxamide], the GI50 in test [1] is < 0.5 µM; in the test with VCaP cells (Homo sapiens), < 0.5 µM; in test [2], > 3 µM. In addition, the Kd on BRD4-BD1 was > 2.5 µM; on BRD4-BD2, 0.5 to 2.5 µM.

For the molecule `CN(c1ccc(Oc2cccc(OCCOC3CCN(c4ncc(C(=O)N[C@H]5C(C)(C)[C@H](Oc6ccc(C#N)c(Cl)c6)C5(C)C)cn4)CC3)c2)c(-c2cn(C)c(=O)c3[nH]ccc23)c1)S(=O)(=O)C1CC1` [Compound I-49], the figures for the GI50 (in test [1]; in the test with VCaP cells (Homo sapiens); in test [2]) were < 0.5 µM, < 0.5 µM and > 3 µM, respectively. Besides, the values for the dissociation constant (Kd) on BRD4-BD1 and on BRD4-BD2 were > 2.5 µM and 0.5 to 2.5 µM, respectively.

As for `CN(c1ccc(Oc2cccc(OCCOC3CCN(c4ncc(C(=O)N[C@H]5C(C)(C)[C@H](Oc6ccc(C#N)c(Cl)c6)C5(C)C)cn4)CC3)c2)c(-c2cn(C)c(=O)c3[nH]ccc23)c1)S(C)(=O)=O` [Compound I-51], the GI50 (in test [1]; in the test on VCaP cells (Homo sapiens); in test [2]) was < 0.5 µM each time. The dissociation constant Kd at BRD4-BD1 is > 2.5 µM; at BRD4-BD2 it was 0.5 to 2.5 µM.

For the molecule `CCS(=O)(=O)N(C)c1ccc(Oc2cccc(OCCOC3CCN(c4ncc(C(=O)N[C@H]5C(C)(C)[C@H](Oc6ccc(C#N)c(Cl)c6)C5(C)C)cn4)CC3)c2)c(-c2cn(C)c(=O)c3[nH]ccc23)c1` [Compound I-52], the GI50 (in test [1]; with VCaP cells (Homo sapiens); in test [2]) was < 0.5 µM throughout. Besides, the Kd at BRD4-BD1 is > 2.5 µM; at BRD4-BD2, 0.5 to 2.5 µM.

Consider `CCS(=O)(=O)Nc1ccc(Oc2cccc(OCCOC3CCN(c4ncc(C(=O)N[C@H]5C(C)(C)[C@H](Oc6ccc(C#N)c(Cl)c6)C5(C)C)cn4)CC3)c2F)c(-c2cn(C)c(=O)c3[nH]ccc23)c1` [Compound I-64], for which the GI50 (in test [1]; in the test with VCaP cells (Homo sapiens); in test [2]) was < 0.5 µM in each case. Besides, the Kd on BRD4-BD1 was > 2.5 µM; at BRD4-BD2, < 0.05 µM.

On to `CCS(=O)(=O)Nc1ccc(OC(COCCOC2CCN(c3ncc(C(=O)N[C@H]4C(C)(C)[C@H](Oc5ccc(C#N)c(Cl)c5)C4(C)C)cn3)CC2)C2CC2)c(-c2cn(C)c(=O)c3[nH]ccc23)c1` (stereo partly drawn) [Compound I-67], for which the GI50 (in test [1]; in the test with VCaP cells (Homo sapiens); in test [2]) was < 0.5 µM throughout. Besides, the Kd at BRD4-BD1 and at BRD4-BD2 was 0.05 to 0.5 µM in each case.

Take `CCS(=O)(=O)Nc1ccc(OCC(OCCOC2CCN(c3ncc(C(=O)N[C@H]4C(C)(C)[C@H](Oc5ccc(C#N)c(Cl)c5)C4(C)C)cn3)CC2)C2CC2)c(-c2cn(C)c(=O)c3[nH]ccc23)c1` (stereo partly drawn) [Compound I-68, N-((1r, 3r)-3-(3-chloro-4-cyanophenoxy)-2,2,4,4-tetramethylcyclobutyl)-2-(4-(2-(1-cyclopropyl-2-(4-(ethylsulfonamido)-2-(6-methyl-7-oxo-6,7-dihydro-1H-pyrrolo[2,3-c]pyridin-4-yl)phenoxy)ethoxy)ethoxy)piperidin-1-yl)pyrimidine-5-carboxamide]: the results for the GI50 (in test [1]; in the test on VCaP cells (Homo sapiens); in test [2]) were < 0.5 µM, < 0.5 µM and > 3 µM, respectively. The Kd at BRD4-BD1 and at BRD4-BD2 was 0.05 to 0.5 µM in each case.

Regarding `CN(c1ccc(Oc2cccc(OCCN3CCN(c4ncc(C(=O)N[C@H]5C(C)(C)[C@H](Oc6ccc(C#N)c(Cl)c6)C5(C)C)cn4)CC3)c2)c(-c2cn(C)c(=O)c3[nH]ccc23)c1)S(=O)(=O)C1CC1` [Compound I-95], the GI50 (in test [1]; with VCaP cells (Homo sapiens); in test [2]) was < 0.5 µM throughout. Further, the Kd on BRD4-BD1 lay in the range of 0.5 to 2.5 µM; on BRD4-BD2, 0.05 to 0.5 µM.

As to `CCS(=O)(=O)Cc1ccc(Oc2cccc(OCCN3CCN(c4ncc(C(=O)N[C@H]5C(C)(C)[C@H](Oc6ccc(C#N)c(Cl)c6)C5(C)C)cn4)CC3)c2)c(-c2cn(C)c(=O)c3[nH]ccc23)c1` [Compound I-106], the GI50 (in test [1]; with VCaP cells; in test [2]) was < 0.5 µM throughout. In addition, the Kd at BRD4-BD1 was 0.05 to 0.5 µM; on BRD4-BD2 it was < 0.05 µM.

Consider `CCS(=O)(=O)Cc1ccc(Oc2cccc(OCCC3CCN(c4ncc(C(=O)N[C@H]5C(C)(C)[C@H](Oc6ccc(C#N)c(Cl)c6)C5(C)C)cn4)CC3)c2)c(-c2cn(C)c(=O)c3[nH]ccc23)c1` [Compound I-109], for which the GI50 (in test [1]; in the test on VCaP cells; in test [2]) was < 0.5 µM throughout. In addition, the Kd at BRD4-BD1 was > 2.5 µM; on BRD4-BD2, 0.5 to 2.5 µM.

For `CCS(=O)(=O)Cc1ccc(Oc2cccc(CCCN3CCN(c4ncc(C(=O)N[C@H]5C(C)(C)[C@H](Oc6ccc(C#N)c(Cl)c6)C5(C)C)cn4)CC3)c2)c(-c2cn(C)c(=O)c3[nH]ccc23)c1` [Compound I-133], the GI50 (in test [1]; in the test on VCaP cells; in test [2]) was < 0.5 µM in each case. Further, the results for the Kd at BRD4-BD1 and at BRD4-BD2 were 0.05 to 0.5 µM and < 0.05 µM, respectively.
